Assay results taken from the supplement of paper PMC6045584.
± gives the standard deviation of the averaged measurements.

Tests used:
FLUOROURACIL = compound: O=c1[nH]cc(F)c(=O)[nH]1 [FLUOROURACIL]; experiment: surviving fraction relative to DMSO-only wells; higher = less growth inhibition; conditions: exposure time: 5 days
Procedure, shortened: (§1)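 At 250–500 cells per well in 384-well plates, log-phase tumour cell lines were seeded and, 24 hours on, exposed continuously for five days to inhibitors at 0.5, 1, 5, 10, 50, 100, 500 and 1000 nM. Viability readout was CellTiter-Glo luminescence, reported as surviving fraction normalised to the median of DMSO-only wells.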

SALINOMYCIN = compound: CC[C@@H](C(=O)[C@@H](C)[C@@H](O)[C@H](C)[C@@H]1O[C@@H]([C@@H](CC)C(=O)O)CC[C@@H]1C)[C@H]1O[C@]2(C=C[C@@H](O)[C@]3(CC[C@@](C)([C@H]4CC[C@](O)(CC)[C@H](C)O4)O3)O2)[C@H](C)C[C@@H]1C [SALINOMYCIN]; experiment: as above; conditions: exposure time: 5 days
Procedure, shortened: as §1

Row | Test System | surviving fraction (FLUOROURACIL; 0.5 nM) | surviving fraction (FLUOROURACIL; 1 nM) | surviving fraction (FLUOROURACIL; 5 nM) | surviving fraction (FLUOROURACIL; 10 nM) | surviving fraction (FLUOROURACIL; 50 nM) | surviving fraction (FLUOROURACIL; 100 nM) | surviving fraction (FLUOROURACIL; 500 nM) | surviving fraction (FLUOROURACIL; 1000 nM) | surviving fraction (SALINOMYCIN; 0.5 nM) | surviving fraction (SALINOMYCIN; 1 nM) | surviving fraction (SALINOMYCIN; 5 nM) | surviving fraction (SALINOMYCIN; 10 nM) | surviving fraction (SALINOMYCIN; 50 nM) | surviving fraction (SALINOMYCIN; 100 nM) | surviving fraction (SALINOMYCIN; 500 nM) | surviving fraction (SALINOMYCIN; 1000 nM)
1 | SCC003 HEADNECK | 1.02 ± 0.082 | 1.05 ± 0.042 | 1.03 ± 0.024 | 0.965 ± 0.044 | 1.02 ± 0.12 | 0.881 ± 0.036 | 0.6943 ± 0.005 | 0.87 ± 0.13 | 0.904 ± 0.056 | 0.863 ± 0.098 | 0.946 ± 0.042 | 0.973 ± 0.059 | 1.04 ± 0.11 | 0.897 ± 0.05 | 0.49 ± 0.021 | 0.267 ± 0.016
2 | SCC36 HEADNECK | 0.92 ± 0.093 | 0.872 ± 0.052 | 1.06 ± 0.13 | 1.05 ± 0.031 | 0.739 ± 0.095 | 0.775 ± 0.029 | 0.624 ± 0.076 | 0.529 ± 0.047 | 0.984 ± 0.07 | 0.972 ± 0.12 | 1.094 ± 0.0015 | 0.973 ± 0.039 | 1.11 ± 0.02 | 0.925 ± 0.051 | 0.149 ± 0.011 | 0.08 ± 0.0078
3 | SCC47 HEADNECK | 1.12 ± 0.088 | 1.14 ± 0.026 | 1.22 ± 0.15 | 1.1 ± 0.043 | 1.02 ± 0.048 | 0.945 ± 0.051 | 0.854 ± 0.047 | 0.956 ± 0.057 | 0.842 ± 0.064 | 0.792 ± 0.026 | 0.977 ± 0.074 | 0.992 ± 0.044 | 1.06 ± 0.085 | 1 ± 0.12 | 0.561 ± 0.068 | 0.489 ± 0.023
4 | SCC90 HEADNECK | 0.968 ± 0.033 | 0.982 ± 0.096 | 1 ± 0.039 | 1.012 ± 0.009 | 0.928 ± 0.087 | 0.86 ± 0.1 | 0.908 ± 0.064 | 0.95 ± 0.08 | 0.897 ± 0.073 | 0.919 ± 0.035 | 1.16 ± 0.059 | 0.986 ± 0.14 | 1.17 ± 0.2 | 0.963 ± 0.057 | 0.301 ± 0.041 | 0.255 ± 0.067
5 | SG27 HEADNECK | 1.07 ± 0.029 | 1.08 ± 0.13 | 0.991 ± 0.016 | 1.08 ± 0.053 | 1.08 ± 0.087 | 1 ± 0.13 | 1.137 ± 0.0093 | 1.01 ± 0.043 | 1.03 ± 0.099 | 1.09 ± 0.17 | 0.997 ± 0.11 | 0.921 ± 0.094 | 1.12 ± 0.08 | 1.1 ± 0.074 | 0.249 ± 0.028 | 0.184 ± 0.015
6 | SG28 HEADNECK | 1.04 ± 0.056 | 1.08 ± 0.056 | 0.944 ± 0.078 | 1.06 ± 0.036 | 0.756 ± 0.013 | 0.756 ± 0.12 | 0.781 ± 0.059 | 0.693 ± 0.068 | 1.05 ± 0.098 | 1.08 ± 0.06 | 1.07 ± 0.16 | 0.835 ± 0.1 | 0.835 ± 0.077 | 0.762 ± 0.046 | 0.498 ± 0.068 | 0.323 ± 0.037
7 | SG31 HEADNECK | 1.09 ± 0.14 | 1.25 ± 0.32 | 1.05 ± 0.085 | 0.973 ± 0.11 | 0.893 ± 0.048 | 0.981 ± 0.16 | 0.903 ± 0.059 | 0.876 ± 0.054 | 1.08 ± 0.15 | 1.12 ± 0.036 | 1.07 ± 0.089 | 0.888 ± 0.097 | 0.924 ± 0.048 | 0.863 ± 0.093 | 0.413 ± 0.033 | 0.317 ± 0.047
8 | SG32 HEADNECK | 1.28 ± 0.12 | 0.974 ± 0.046 | 1.21 ± 0.34 | 0.932 ± 0.029 | 0.864 ± 0.056 | 0.716 ± 0.098 | 0.8 ± 0.095 | 0.442 ± 0.096 | 0.944 ± 0.068 | 1.13 ± 0.41 | 0.951 ± 0.13 | 0.729 ± 0.054 | 0.921 ± 0.13 | 0.636 ± 0.016 | 0.133 ± 0.01 | 0.054 ± 0.0044
